Data from patent US20090098050A1, “CALCIUM BINDING PEPTIDES” (THE REGENTS OF THE UNVERSITY OF CALIFORNIA, priority 2005, published 2009).

Tests used:
[1] = Binding to inorganic phosphate precipitates (relative fluorescence); conditions: 12.5 μM labeled peptide, ten minutes, about 0.5% (w/v) salt
Procedure: FIG. 10: Relative levels of 8DSS peptide binding to various inorganic phosphate precipitates. 100 mM sodium phosphate (pH 7.5) was combined with 100 mM solutions of MgCl2, CaCl2, MnCl2, CoCl2, NiSO4, CuSO4, and SrCl2, respectively. Suspensions were made of each phosphate salt at a concentration of approximately 0.5% (w/v) in the presence of 12.5 μM 5(6)-carboxyfluorescein-labeled 8DSS peptide. After a ten minute incubation at room temperature, samples were washed and imaged by fluorescence microscopy. The intensity of the fluorescent staining of the inorganic phosphate particles in each sample was assessed by measuring the pixel intensity values using the GIMP (www.gimp.org) as described in Example 11. Normalized fluorescence values are plotted here. […] On the Y-axis, the relative fluorescence intensity values are plotted.
Phosphate salts of magnesium, calcium, manganese, cobalt, nickel, copper, and strontium were prepared by combining 100 mM sodium phosphate (pH 7.5) with 100 mM solutions of the chloride or sulfate salts of the aforementioned metal ions (MgCl2, CaCl2, MnCl2, CoCl2, NiSO4, CuSO4, and SrCl2, respectively). […] Each sample was incubated for ten minutes at room temperature, then washed twice with a solution of 50 mM HEPES pH 7.0 and 10 mM NaCl, resuspended in the same buffer, and imaged by fluorescence microscopy. […]

[2] = Remineralization of demineralized dentin surfaces with Quell Desensitizer (SEM); set-up: species or system human; conditions: 12.5 μM peptide one hour, then Quell Desensitizer 15 minutes
Procedure: FIG. 4: Remineralization of tooth surfaces with DSS peptides. Extracted human teeth were sagitally sectioned and demineralized with 19% EDTA gel for 1 hour, followed by immersion in deionized water and ultrasonication to remove excess debris. Samples were treated as indicated, then imaged by Scanning Electron Microscopy. Scale bars=50 μm. A. Demineralized control samples. B. Treated with 8DSS for 1 hour, rinsed, and remineralized using Quell Desensitizer. C. Treated with buffer only, remineralized using Quell Desensitizer. D. No treatment, remineralized using Quell Desensitizer. Extracted human teeth were sagitally sectioned (Accutom-50, CA-231 diamond blade) and demineralized with 19% EthyleneDiaminoTetraAcetic acid (EDTA) gel for one hour, followed by immersion in deionized water and ultrasonication to remove excess debris. Samples were treated with 12.5 μM 8DSS peptide in 50 mM HEPES buffer (pH 7.0), buffer only (no peptide), or left untreated. After one hour, samples were remineralized for 15 minutes with Quell Desensitizer (Pentron technologies, LLC), a remineralization solution consisting of aqueous solutions of calcium chloride and potassium phosphate. Samples were rinsed thoroughly prior to imaging by scanning electron microscopy (SEM).

In the case of “8DSS: peptide containing eight Asp-Ser-Ser (DSS) repeats, SEQ ID NO:15 (DSSDSSDSSDSSDSSDSSDSSDSS; calcium binding peptide containing eight DSS repeats, 8DSS)”, the “Fluorescent staining of CaHPO4 and SrHPO4 aggregates” value [1] is reported as “highest levels of staining”, the “Fluorescent staining of NiHPO4 aggregates” value [1] is reported as “small level of staining” and the “Mineral precipitate accumulation on demineralized dentin” value [2] is reported as “accumulated a continuous layer of calcium phosphate precipitate, fully occluding the dentinal tubules”.
